This note sets out measurements from patent US8063071B2 (GlaxoSmithKline, LLC, priority 2007, dated 2011).

The target in experiment [1] is T1, Recombinant human IKKβ (residues 1-737) (Homo sapiens, UniProt O14920).
T1 construct: Recombinant human IKKβ (residues 1-737); GST (C); made in house
T1 sequence (O14920 1-737): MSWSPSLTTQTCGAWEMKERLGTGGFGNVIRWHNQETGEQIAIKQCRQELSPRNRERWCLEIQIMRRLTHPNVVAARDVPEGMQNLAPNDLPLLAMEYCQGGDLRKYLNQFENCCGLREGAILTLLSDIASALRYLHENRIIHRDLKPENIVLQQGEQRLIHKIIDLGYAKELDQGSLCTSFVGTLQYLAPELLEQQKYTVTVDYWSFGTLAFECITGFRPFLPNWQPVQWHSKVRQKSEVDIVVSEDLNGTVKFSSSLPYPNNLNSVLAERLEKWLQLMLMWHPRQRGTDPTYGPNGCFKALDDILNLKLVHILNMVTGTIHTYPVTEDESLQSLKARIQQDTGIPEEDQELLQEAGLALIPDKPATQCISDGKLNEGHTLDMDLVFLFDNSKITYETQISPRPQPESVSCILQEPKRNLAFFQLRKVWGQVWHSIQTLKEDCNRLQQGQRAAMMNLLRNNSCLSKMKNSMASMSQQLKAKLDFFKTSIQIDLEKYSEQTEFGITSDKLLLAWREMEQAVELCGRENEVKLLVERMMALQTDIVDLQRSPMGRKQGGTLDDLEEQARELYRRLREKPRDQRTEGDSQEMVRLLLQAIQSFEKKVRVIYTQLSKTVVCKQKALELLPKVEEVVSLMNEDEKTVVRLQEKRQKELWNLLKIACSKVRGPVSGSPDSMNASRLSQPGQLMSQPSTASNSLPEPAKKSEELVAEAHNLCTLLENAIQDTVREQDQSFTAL
Briefly: IKK2 assay (TR-FRET). It counts as biochemical. The conditions noted are these: ATP 1 μM final, read-out: pIC50 against IKK2 (converted). The gist of the method: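 Baculovirus-expressed C-terminal GST-tagged IKKβ (0.5-5 nM final) in HEPES pH 7.4, MgCl2, CHAPS, DTT, BSA with 1.7% DMSO; 25 nM GST-IB substrate and 1 μM ATP, 15 min at room temperature. EDTA stop; phospho-Ser32/36 detected by Eu-antibody/APC-anti-GST TR-FRET, 665/620 nm ratio.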
On the technique in general: TR-FRET usually uses a lanthanide donor and a delayed reading to cut background.

Experiment [2] deals with human monocyte stimulated cytokine production (TNF-α). Description: Monocyte assay (LPS-stimulated TNF-α production). Format: cell-based. The conditions noted are these: for IC50: 24 h, 200 ng/mL LPS, TNF-α by ELISA. In a few lines: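 Human CD14+ monocytes were purified from blood and plated at 1×10^6 cells/mL in RPMI 1640 with 10% FBS. Compound was added 30 min before stimulation with 200 ng/mL LPS (0.1% DMSO final), followed by 24 hrs at 37 C. Supernatant TNF-α was measured by ELISA, and viability by trypan blue exclusion.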
A general note: An ELISA detects its analyte on a solid surface through an enzyme-linked reagent.

The structures appear in SMILES notation. Structures can show the parent of a compound that is named as a salt.

In the case of `CCS(=O)(=O)N1CCC(c2c[nH]c3c(C(N)=O)cc(-c4csc(CN5CCCC5C(C)C)c4)cc23)CC1` (centres unmarked) [Example 94, 3-[1-(ethylsulfonyl)-4-piperidinyl]-5-(5-{[2-(1-methylethyl)-1-pyrrolidinyl]methyl}-3-thienyl)-1H-indole-7-carboxamide], in experiment [1], the IC50 was ≤ 10 µM. The inhibition (as a rule, the share of the control response that was lost under treatment) at 0.3 µM in experiment [2] (read-out: inhibition at 300 nM in the monocyte assay) lay within 0 to 60%.

As for `CCS(=O)(=O)N1CCC(c2c[nH]c3c(C(N)=O)cc(-c4csc(CN5CCC[C@H]5COC)c4)cc23)CC1` [Example 95, 3-[1-(ethylsulfonyl)-4-piperidinyl]-5-[5-({(2S)-2-[(methyloxy)methyl]-1-pyrrolidinyl}methyl)-3-thienyl]-1H-indole-7-carboxamide], the IC50 is ≤ 10 µM in experiment [1] and ≤ 1.5 µM in experiment [2].

With `CCS(=O)(=O)N1CCC(c2c[nH]c3c(C(N)=O)cc(-c4csc(CN(C)C5CCCCC5)c4)cc23)CC1` [Example 96, 5-(5-{[cyclohexyl(methyl)amino]methyl}-3-thienyl)-3-[1-(ethylsulfonyl)-4-piperidinyl]-1H-indole-7-carboxamide], the IC50 was ≤ 10 µM in experiment [1] and ≤ 1.5 µM in experiment [2].

Regarding `CCCN(C)Cc1cc(-c2cc(C(N)=O)c3[nH]cc(C4CCN(S(=O)(=O)C(C)C)CC4)c3c2)cs1` [Example 100, 3-{1-[(1-methylethyl)sulfonyl]-4-piperidinyl}-5-(5-{[methyl(propyl)amino]methyl}-3-thienyl)-1H-indole-7-carboxamide trifluoroacetate], the IC50 in experiment [1] is ≤ 10 µM; in experiment [2], ≤ 1.5 µM.

With `CCN(C)Cc1cc(-c2cc(C(N)=O)c3[nH]cc(C4CCN(S(=O)(=O)C(C)C)CC4)c3c2)cs1` [Example 101, 5-(5-{[ethyl(methyl)amino]methyl}-3-thienyl)-3-{1-[(1-methylethyl)sulfonyl]-4-piperidinyl}-1H-indole-7-carboxamide], the IC50 in experiment [1] was ≤ 10 µM; in experiment [2], ≤ 1.5 µM.

Regarding `COCCN(C)Cc1cc(-c2cc(C(N)=O)c3[nH]cc(C4CCN(S(=O)(=O)C(C)C)CC4)c3c2)cs1` [Example 102, 3-{1-[(1-methylethyl)sulfonyl]-4-piperidinyl}-5-[5-({methyl[2-(methyloxy)ethyl]amino}methyl)-3-thienyl]-1H-indole-7-carboxamide], the values for the IC50 in experiment [1] and in experiment [2] were ≤ 10 µM and ≤ 1.5 µM, respectively.

In the case of `CCS(=O)(=O)N1CCC(c2c[nH]c3c(C(N)=O)cc(-c4ccc(CNC)s4)cc23)CC1` [Example 103, 3-[1-(ethylsulfonyl)-4-piperidinyl]-5-{5-[(methylamino)methyl]-2-thienyl}-1H-indole-7-carboxamide], the IC50 in experiment [1] was ≤ 10 µM; in experiment [2] it was ≤ 1.5 µM.

Take `CCS(=O)(=O)N1CCC(c2c[nH]c3c(C(N)=O)cc(-c4csc(CN5CCCC5C)c4)cc23)CC1` (centres unmarked) [Example 104, 3-[1-(ethylsulfonyl)-4-piperidinyl]-5-{5-[(2-methyl-1-pyrrolidinyl)methyl]-3-thienyl}-1H-indole-7-carboxamide trifluoroacetate]: the IC50 in experiment [1] was ≤ 10 µM; in experiment [2] it was ≤ 1.5 µM.

On to `CCS(=O)(=O)N1CCC(c2c[nH]c3c(C(N)=O)cc(-c4csc(CNCC(C)C)c4)cc23)CC1` [Example 105, 3-[1-(ethylsulfonyl)-4-piperidinyl]-5-(5-{[(2-methylpropyl)amino]methyl}-3-thienyl)-1H-indole-7-carboxamide trifluoroacetate], for which the IC50 in experiment [1] was ≤ 10 µM; in experiment [2] it was ≤ 1.5 µM.

Take `CCCNCc1cc(-c2cc(C(N)=O)c3[nH]cc(C4CCN(S(=O)(=O)CC)CC4)c3c2)cs1` [Example 106, 3-[1-(ethylsulfonyl)-4-piperidinyl]-5-{5-[(propylamino)methyl]-3-thienyl}-1H-indole-7-carboxamide trifluoroacetate]: the IC50 was ≤ 10 µM in experiment [1] and ≤ 1.5 µM in experiment [2].

Turning to `CCN(CC)Cc1cc(-c2cc(C(N)=O)c3[nH]cc(C4CCN(S(=O)(=O)CC)CC4)c3c2)cs1` [Example 107, 5-{5-[(diethylamino)methyl]-3-thienyl}-3-[1-(ethylsulfonyl)-4-piperidinyl]-1H-indole-7-carboxamide trifluoroacetate], the IC50 in experiment [1] was ≤ 10 µM; in experiment [2], ≤ 1.5 µM.

Consider `CCS(=O)(=O)N1CCC(c2c[nH]c3c(C(N)=O)cc(-c4csc(CN5[C@H](C)CC[C@H]5C)c4)cc23)CC1` [Example 108, 5-(5-{[(2R,5R)-2,5-dimethyl-1-pyrrolidinyl]methyl}-3-thienyl)-3-[1-(ethylsulfonyl)-4-piperidinyl]-1H-indole-7-carboxamide trifluoroacetate], for which the IC50 in experiment [1] is ≤ 10 µM; in experiment [2] it was ≤ 1.5 µM.

With `CCS(=O)(=O)N1CCC(c2c[nH]c3c(C(N)=O)cc(-c4csc(CNC5CC5)c4)cc23)CC1` [Example 109, 5-{5-[(cyclopropylamino)methyl]-3-thienyl}-3-[1-(ethylsulfonyl)-4-piperidinyl]-1H-indole-7-carboxamide trifluoroacetate], the IC50 in experiment [1] was ≤ 10 µM; in experiment [2] it was ≤ 1.5 µM.

Take `CCS(=O)(=O)N1CCC(c2c[nH]c3c(C(N)=O)cc(-c4csc(CNC5CCC5)c4)cc23)CC1` [Example 110, 5-{5-[(cyclobutylamino)methyl]-3-thienyl}-3-[1-(ethylsulfonyl)-4-piperidinyl]-1H-indole-7-carboxamide trifluoroacetate]: the IC50 is ≤ 10 µM in experiment [1] and ≤ 1.5 µM in experiment [2].

In the case of `CCS(=O)(=O)N1CCC(c2c[nH]c3c(C(N)=O)cc(-c4csc(CN(C)C)c4)cc23)CC1` [Example 111, 5-{5-[(dimethylamino)methyl]-3-thienyl}-3-[1-(ethylsulfonyl)-4-piperidinyl]-1H-indole-7-carboxamide trifluoroacetate], the values for the IC50 in experiment [1] and in experiment [2] were ≤ 10 µM and ≤ 1.5 µM, respectively.

Take `CCS(=O)(=O)N1CCC(c2c[nH]c3c(C(N)=O)cc(-c4csc(CNCC5CCCC5)c4)cc23)CC1` [Example 112, 5-(5-{[(cyclopentylmethyl)amino]methyl}-3-thienyl)-3-[1-(ethylsulfonyl)-4-piperidinyl]-1H-indole-7-carboxamide trifluoroacetate]: the results for the IC50 in experiment [1] and in experiment [2] were ≤ 10 µM and ≤ 1.5 µM, respectively.

On to `CCS(=O)(=O)N1CCC(c2c[nH]c3c(C(N)=O)cc(-c4csc(CN[C@H](C)C(C)C)c4)cc23)CC1` [Example 113, 5-[5-({[(1R)-1,2-dimethylpropyl]amino}methyl)-3-thienyl]-3-[1-(ethylsulfonyl)-4-piperidinyl]-1H-indole-7-carboxamide trifluoroacetate], for which the results for the IC50 in experiment [1] and in experiment [2] were ≤ 10 µM and ≤ 1.5 µM, respectively.

As for `CCS(=O)(=O)N1CCC(c2c[nH]c3c(C(N)=O)cc(-c4csc(CNC5CCCC5)c4)cc23)CC1` [Example 114, 5-{5-[(cyclopentylamino)methyl]-3-thienyl}-3-[1-(ethylsulfonyl)-4-piperidinyl]-1H-indole-7-carboxamide trifluoroacetate], the IC50 in experiment [1] is ≤ 10 µM; in experiment [2], ≤ 1.5 µM.

Take `CCS(=O)(=O)N1CCC(c2c[nH]c3c(C(N)=O)cc(-c4csc(CNCC5CC5)c4)cc23)CC1` [Example 115, 5-(5-{[(cyclopropylmethyl)amino]methyl}-3-thienyl)-3-[1-(ethylsulfonyl)-4-piperidinyl]-1H-indole-7-carboxamide trifluoroacetate]: the IC50 was ≤ 10 µM in experiment [1] and ≤ 1.5 µM in experiment [2].
